Tests used:
[1] = tested on: AMP-activated protein kinase (AMPK); assay: Activity (phospho level) of AMPK in liver tissue by Western blotting; assay type: in vivo, rats; settings: activity decreased due to alcohol intake; oral daily for the last week, alone or concurrently; FIG. 8
Method: (§1) Sodium dodecyl sulfate-polyacrylamide gel electrophoresis (SDS-PAGE) was carried out using Mighty Small II SE 250 apparatus according to the Laemmli UK method (1970). Lysis fraction of liver tissue was diluted in a sample dilution buffer [63 mM Tris (pH 6.8), 10% glycerol, 2% SDS, 0.0013% bromophenol blue, 5% β-mercaptoethanol] and electrophoresis was performed in an electrode buffer (15 g of Tris, 72 g of glycine and 5 g of SDS in 1 L) using 7.5% and 9% gel. After electrophoresis, proteins were transferred to nitrocellulose paper at 190 mAmps for a duration of 1 hour, using a transfer buffer [25 mM Tris, 192 mM glycine, 20% v/v methanol (pH 8.3)]. Anti-fatty acid synthase, anti-iNOS, anti-phospho AMPK-α anti-phospho ACC, anti-Fox01, anti-Fox03 and anti-CYP2E1 were reacted as primary antibodies. […] Change in the expression of proteins was analyzed by determining the color intensity of blots through densitometry. […]
(§2) The levels of AMPK (AMP-activated protein kinase), a critical enzyme involved in the oxidation of fatty acid, and phosphate form of ACC (acetyl-CoA carboxylase), a substrate of AMPK, in the liver tissue taken in Example 1 were analyzed by Western blotting.

[2] = tested on: fatty acid synthase (FAS); assay: Expression of FAS in liver tissue by Western blotting; assay type: in vivo, rats; settings: expression decreased by chronic alcohol intake; oral daily for the last week, alone at high dose or concurrently; FIG. 5
Text: The decreased expression of FAS was not restored by the administration of metadoxine or garlic oil alone at high dose.

[3] = tested on: acetyl-CoA carboxylase (ACC); settings: activity decreased due to alcohol intake; oral daily for the last week, alone or concurrently; FIG. 9
Method: as §1, §2

[4] = tested on: inducible nitric oxide synthase (iNOS); assay: Expression of iNOS in liver tissue by Western blotting; assay type: in vivo, rats; settings: expression strongly induced by chronic alcohol intake; oral daily for the last week, alone or concurrently; FIG. 7
Text: iNOS is an enzyme strongly inducing inflammation in liver tissue. The induction of the expression of iNOS is considered as a primary mechanism of alcohol-induced liver damage (Mckim, et al., Gastroenterology 125:1834-1844, 2003; and Venkatraman A, et al., Hepatology 40: 565-573, 2004).

Question: With `Cc1ncc(CO)c(CO)c1O.O=C1CCC(C(=O)O)N1` [metadoxine, pyridoxol 1-2-pyrrolidone-5-carboxylate] as the compound, how does the “activity of AMPK in liver tissue” value [1] read?
Answer: no change

Question: And the “expression of fatty acid synthase (FAS) in liver tissue” value [2]?
Answer: not restored

Question: What about the “activity of ACC in liver tissue” value [3] of the same compound?
Answer: no change

Question: What about the “expression of iNOS in liver tissue” value [4] of the same compound?
Answer: decreased
